Measured values taken from patent US20250223281A1, “ANTIDIABETIC COMPOUNDS AND COMPOSITIONS” (REZUBIO PHARMACEUTICALS CO., LTD, priority 2022, published 2025).

Target: T1, GPR40 (Homo sapiens, UniProt O14842)
T1 construct: expressed in transfected cells; host or cells: HEK293 cells stably expressing GPR40 (Hygromycin selection)
Test: IP1 accumulation assay in HEK293 cells stably expressing GPR40
Format: cell-based
How it was run: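 HEK293 cells stably expressing human GPR40 were incubated with compounds (10-point, 3-fold dilution series) for 2 h at 37 °C, then IP1 was detected by HTRF (665/615 nm ratio). Effect was normalised to DMSO blank and AMG-1638 as 100%, and EC50 was derived from dose curves.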

[1] = IP1 accumulation, HEK293 cells stably expressing GPR40, 2 hours at 37° C., % effect relative to AMG-1638, table of Biological Example 1
[2] = Tables A-1a to A-7b (structure-property relationship), obtained by methods of Biological Example 1
[3] = Table A-8 (additional examples), obtained by methods of Biological Example 1

T1 sequence (O14842 whole entry): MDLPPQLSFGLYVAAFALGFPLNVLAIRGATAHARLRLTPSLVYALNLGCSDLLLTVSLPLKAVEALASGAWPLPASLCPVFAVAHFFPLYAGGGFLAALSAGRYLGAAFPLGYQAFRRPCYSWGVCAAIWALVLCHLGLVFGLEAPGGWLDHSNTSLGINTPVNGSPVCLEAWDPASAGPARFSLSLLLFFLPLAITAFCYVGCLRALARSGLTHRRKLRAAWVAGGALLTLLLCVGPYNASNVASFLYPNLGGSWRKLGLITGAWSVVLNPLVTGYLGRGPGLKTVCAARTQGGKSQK

SMILES | EC50 [1] | EC50 [2] | EC50 [3]
COc1ccc(F)c(-c2ccc(COc3cccc([C@@H](CC(=O)O)C4CC4)c3)cc2C(C)(C)c2cn(CCCCCCCCCCCCCCCC(=O)NCC[N+](C)(CCC(=O)NCCN)CCC(=O)NCCN)nn2)c1 [Example 103] | 21.5 nM | – | –
COc1ccc(F)c(-c2ccc(COc3cccc([C@@H](CC(=O)O)C4CC4)c3)cc2CC(C)(C)Cn2cc(CCCCCCCCCC(=O)NCCCN(CC(=O)O)CC(=O)O)nn2)c1 [Example 104] | > 10000 nM | – | –
COc1ccc(F)c(-c2ccc(COc3cccc([C@@H](CC(=O)O)C4CC4)c3)cc2CC(C)(C)Cn2cc(CCCCCCCCCC(=O)NCCC[N+](C)(CC(=O)[O-])CC(=O)O)nn2)c1 (stereo partly drawn) [Example 105] | > 10000 nM | – | –
COc1ccc(F)c(-c2ccc(COc3cccc([C@@H](CC(=O)O)C4CC4)c3)cc2CC(C)(C)Cn2cc(CCCCCCCCCCCCCC(=O)NCCCN(CC(=O)O)CC(=O)O)nn2)c1 [Example 106] | 696 nM | – | –
COc1ccc(F)c(-c2ccc(COc3cccc([C@@H](CC(=O)O)C4CC4)c3)cc2CC(C)(C)Cn2cc(CCCCCCCCCCCCCC(=O)NCCC[N+](C)(CC(=O)O)CC(=O)O)nn2)c1 [Example 107] | 1310 nM | – | –
COc1ccc(F)c(-c2ccc(COc3cccc([C@@H](CC(=O)O)C4CC4)c3)cc2CC(C)(C)Cn2cc(CCCCCCCCCCCCCCC(=O)NCCCN(CC(=O)O)CC(=O)O)nn2)c1 [Example 108] | 312 nM | – | –
COc1ccc(F)c(-c2ccc(COc3cccc([C@@H](CC(=O)O)C4CC4)c3)cc2CC(C)(C)Cn2cc(CCCCCCCCCCCCCCC(=O)NCCC[N+](C)(CC(=O)O)CC(=O)O)nn2)c1 [Example 109] | > 1000 nM | – | –
COc1ccc(C(=O)N(CC(C)(C)CCn2cc(CCCCCCCCC(=O)NCCN(CCC(=O)NCCN)CCC(=O)NCCN)nn2)c2cccc(C)n2)c(N2CCC(COc3cc([C@@H](CC(=O)O)C4CC4)ccn3)CC2)c1 [Example 110] | 618 nM | 618 nM | –
COc1ccc(C(=O)N(CC(C)(C)CCn2cc(CCCCCCCCC(=O)NCC[N+](C)(CCC(=O)NCCN)CCC(=O)NCCN)nn2)c2cccc(C)n2)c(N2CCC(COc3cc([C@@H](CC(=O)O)C4CC4)ccn3)CC2)c1 [Example 111] | 307 nM | 307 nM | –
COc1ccc(C(=O)N(CC(C)(C)CCn2cc(CCCCCCCCCCC(=O)NCCN(CCC(=O)NCCN)CCC(=O)NCCN)nn2)c2cccc(C)n2)c(N2CCC(COc3cc([C@@H](CC(=O)O)C4CC4)ccn3)CC2)c1 [Example 112] | 14.9 nM | 14.9 nM | –
COc1ccc(F)c(-c2ccc(COc3cccc([C@@H](CC(=O)O)C4CC4)c3)cc2CC(C)(C)Cn2cc(CCCCCCCCCCCC(=O)NCCCN(CC(=O)O)CC(=O)O)nn2)c1 [Example 120] | 1290 nM | – | –
COc1ccc(F)c(-c2ccc(COc3cccc([C@@H](CC(=O)O)C4CC4)c3)cc2CC(C)(C)Cn2cc(CCCCCCCCCCCC(=O)NCCC[N+](C)(CC(=O)[O-])CC(=O)O)nn2)c1 (stereo partly drawn) [Example 122] | 1000 nM | – | –
COc1ccc(F)c(-c2ccc(COc3cccc([C@@H](CC(=O)O)C4CC4)c3)cc2CC(C)(C)Cn2cc(CCCCCCCCCCCCCCCC(=O)NCCC[N+](C)(CC(=O)[O-])CC(=O)O)nn2)c1 (stereo partly drawn) [Example 123] | 32.7 nM | – | –
COc1ccc(C(=O)N(CC(C)(C)CCn2cc(CCCCCCCCCC(=O)NCCCN(CC(=O)O)CC(=O)O)nn2)c2cccc(C)n2)c(N2CCC(COc3cc([C@@H](CC(=O)O)C4CC4)ccn3)CC2)c1 [Example 124] | 226 nM | 226 nM | –
COc1ccc(C(=O)N(CC(C)(C)CCn2cc(CCCCCCCCCC(=O)NCCC[N+](C)(CC(=O)[O-])CC(=O)O)nn2)c2cccc(C)n2)c(N2CCC(COc3cc([C@@H](CC(=O)O)C4CC4)ccn3)CC2)c1 (stereo partly drawn) [Example 125] | 617 nM | 617 nM | –
COc1ccc(F)c(-c2ccc(COc3cccc([C@@H](CC(=O)O)C4CC4)c3)cc2C(C)(C)c2cn(CCCCCCCCCC(=O)NCCN(CCC(=O)NCCN)CCC(=O)NCCN)nn2)c1 [Example 134] | 3600 nM | – | –
COc1ccc(F)c(-c2ccc(COc3cccc([C@@H](CC(=O)O)C4CC4)c3)cc2CC(C)(C)Cc2cn(CCCCCCCCCC(=O)NCCN(CCC(=O)NCCN)CCC(=O)NCCN)nn2)c1 [Example 135] | 3700 nM | > 3700 nM | –
COc1ccc(F)c(-c2ccc(COc3cccc([C@@H](CC(=O)O)C4CC4)c3)cc2OC(C)(C)Cn2cc(CCCCCCCCC(=O)NCCN(CCC(=O)NCCN)CCC(=O)NCCN)nn2)c1 [Example 136] | 1230 nM | – | –

Molecules with a lower EC50 [1], results first:

EC50 [1] | EC50 [2] | EC50 [3] | SMILES
3.54 nM | 3.54 nM | – | COc1ccc(C(=O)N(CC(C)(C)CCCCCCn2cc(CCCCCCC(=O)NCCN(CCC(=O)NCCN)CCC(=O)NCCN)nn2)c2cccc(C)n2)c(N2CCC(COc3cc([C@@H](CC(=O)O)C4CC4)ccn3)CC2)c1 [Example 98]
4.58 nM | 4.58 nM | – | COc1ccc(C(=O)N(CC(C)(C)CCCCCCn2cc(CCCCCCC(=O)NCC[N+](C)(CCC(=O)NCCN)CCC(=O)NCCN)nn2)c2cccc(C)n2)c(N2CCC(COc3cc([C@@H](CC(=O)O)C4CC4)ccn3)CC2)c1 [Example 99]
4.05 nM | 4.05 nM | – | COc1ccc(F)c(-c2ccc(COc3cccc([C@@H](CC(=O)O)C4CC4)c3)cc2CC(C)(C)Cc2cn(CCCCCCCCCCCCCCC(=O)NCC[N+](C)(CCC(=O)NCCN)CCC(=O)NCCN)nn2)c1 [Example 102]
6.27 nM | 6.27 nM | – | COc1ccc(C(=O)N(CC(C)(C)CCn2cc(CCCCCCCCCCC(=O)NCC[N+](C)(CCC(=O)NCCN)CCC(=O)NCCN)nn2)c2cccc(C)n2)c(N2CCC(COc3cc([C@@H](CC(=O)O)C4CC4)ccn3)CC2)c1 [Example 113]
0.42 nM | 0.42 nM | 0.42 nM | COc1ccc(C(=O)N(CC(C)(C)CCn2cc(CCCCCCCCCCCCC(=O)NCCN(CCC(=O)NCCN)CCC(=O)NCCN)nn2)c2cccc(C)n2)c(N2CCC(COc3cc([C@@H](CC(=O)O)C4CC4)ccn3)CC2)c1 [Example 114]
0.51 nM | 0.51 nM | 0.51 nM | COc1ccc(C(=O)N(CC(C)(C)CCn2cc(CCCCCCCCCCCCC(=O)NCC[N+](C)(CCC(=O)NCCN)CCC(=O)NCCN)nn2)c2cccc(C)n2)c(N2CCC(COc3cc([C@@H](CC(=O)O)C4CC4)ccn3)CC2)c1 [Example 115]
0.21 nM | 0.21 nM | – | COc1ccc(C(=O)N(CC(C)(C)CCn2cc(CCCCCCCCCCCCCC(=O)NCCN(CCC(=O)NCCN)CCC(=O)NCCN)nn2)c2cccc(C)n2)c(N2CCC(COc3cc([C@@H](CC(=O)O)C4CC4)ccn3)CC2)c1 [Example 116]
0.29 nM | 0.29 nM | – | COc1ccc(C(=O)N(CC(C)(C)CCn2cc(CCCCCCCCCCCCCC(=O)NCC[N+](C)(CCC(=O)NCCN)CCC(=O)NCCN)nn2)c2cccc(C)n2)c(N2CCC(COc3cc([C@@H](CC(=O)O)C4CC4)ccn3)CC2)c1 [Example 117]
0.33 nM | 0.33 nM | – | COc1ccc(C(=O)N(CC(C)(C)CCn2cc(CCCCCCCCCCCCCCC(=O)NCCN(CCC(=O)NCCN)CCC(=O)NCCN)nn2)c2cccc(C)n2)c(N2CCC(COc3cc([C@@H](CC(=O)O)C4CC4)ccn3)CC2)c1 [Example 118]
0.1 nM | 0.1 nM | – | COc1ccc(C(=O)N(CC(C)(C)CCn2cc(CCCCCCCCCCCCCCC(=O)NCC[N+](C)(CCC(=O)NCCN)CCC(=O)NCCN)nn2)c2cccc(C)n2)c(N2CCC(COc3cc([C@@H](CC(=O)O)C4CC4)ccn3)CC2)c1 [Example 119]
5 nM | – | – | COc1ccc(F)c(-c2ccc(COc3cccc([C@@H](CC(=O)O)C4CC4)c3)cc2CC(C)(C)Cn2cc(CCCCCCCCCCCCCCCC(=O)NCCCN(CC(=O)O)CC(=O)O)nn2)c1 [Example 121]
5.81 nM | 5.81 nM | – | COc1ccc(C(=O)N(CC(C)(C)CCn2cc(CCCCCCCCCCCC(=O)NCCCN(CC(=O)O)CC(=O)O)nn2)c2cccc(C)n2)c(N2CCC(COc3cc([C@@H](CC(=O)O)C4CC4)ccn3)CC2)c1 [Example 126]
6.36 nM | 6.36 nM | – | COc1ccc(C(=O)N(CC(C)(C)CCn2cc(CCCCCCCCCCCC(=O)NCCC[N+](C)(CC(=O)[O-])CC(=O)O)nn2)c2cccc(C)n2)c(N2CCC(COc3cc([C@@H](CC(=O)O)C4CC4)ccn3)CC2)c1 (stereo partly drawn) [Example 127]
1.33 nM | 1.33 nM | – | COc1ccc(C(=O)N(CC(C)(C)CCn2cc(CCCCCCCCCCCCCC(=O)NCCCN(CC(=O)O)CC(=O)O)nn2)c2cccc(C)n2)c(N2CCC(COc3cc([C@@H](CC(=O)O)C4CC4)ccn3)CC2)c1 [Example 128]
0.88 nM | 0.88 nM | – | COc1ccc(C(=O)N(CC(C)(C)CCn2cc(CCCCCCCCCCCCCC(=O)NCCC[N+](C)(CC(=O)[O-])CC(=O)O)nn2)c2cccc(C)n2)c(N2CCC(COc3cc([C@@H](CC(=O)O)C4CC4)ccn3)CC2)c1 (stereo partly drawn) [Example 129]
1.25 nM | 1.25 nM | – | COc1ccc(C(=O)N(CC(C)(C)CCn2cc(CCCCCCCCCCCCCCC(=O)NCCCN(CC(=O)O)CC(=O)O)nn2)c2cccc(C)n2)c(N2CCC(COc3cc([C@@H](CC(=O)O)C4CC4)ccn3)CC2)c1 [Example 130]
0.38 nM | 0.38 nM | – | COc1ccc(C(=O)N(CC(C)(C)CCn2cc(CCCCCCCCCCCCCCC(=O)NCCC[N+](C)(CC(=O)[O-])CC(=O)O)nn2)c2cccc(C)n2)c(N2CCC(COc3cc([C@@H](CC(=O)O)C4CC4)ccn3)CC2)c1 (stereo partly drawn) [Example 131]
0.19 nM | 0.19 nM | – | COc1ccc(C(=O)N(CC(C)(C)CCn2cc(CCCCCCCCCCCCCCCCC(=O)NCCCN(CC(=O)O)CC(=O)O)nn2)c2cccc(C)n2)c(N2CCC(COc3cc([C@@H](CC(=O)O)C4CC4)ccn3)CC2)c1 [Example 132]
0.08 nM | 0.08 nM | – | COc1ccc(C(=O)N(CC(C)(C)CCn2cc(CCCCCCCCCCCCCCCCC(=O)NCCC[N+](C)(CC(=O)[O-])CC(=O)O)nn2)c2cccc(C)n2)c(N2CCC(COc3cc([C@@H](CC(=O)O)C4CC4)ccn3)CC2)c1 (stereo partly drawn) [Example 133]
